The text below walks through data of patent US20060156419A1, “Mouse model for autoimmune disorders” (THE WISTAR INSTITUTE of ANATOMY and BIOLOGY, priority 2002, published 2006).

One experiment relates to TS1 T cell receptor. The experiment is described as follows: Proliferation of TS1 CD4+ T cells in response to graded doses of peptide. The format is cell-based, mouse.
Experiment [1] concerns TS1(SW) T cell receptor. The experiment is described as follows: Proliferation of TS1(SW) CD4+ T cells in response to graded doses of peptide. The format is cell-based, mouse. The following applies: for EC50: read-out: half maximal stimulation.
Experiment [2] relates to TS1(SW) T cell receptor. The following applies: Jordan et al, 2001; cited from earlier work.

Like-named read-outs stand apart in the source and are kept apart here.

As to SFEKFEIFPKT [S1(SW) peptide], the “binding affinity of TS1 T cell receptor (in words)” value with TS1 T cell receptor (FIG. 7A) is reported as “low affinity”. In the experiment with TS1(SW) T cell receptor [1] (CD4+ T cells of TS1(SW) TCR transgenic mice, proliferation, FIG. 7), the EC50 was around 50 nM. Also, the “binding affinity of TS1(SW) T cell receptor (in words)” value in the experiment on TS1(SW) T cell receptor [1] (FIG. 7B) is recorded as “high affinity”.
Regarding SFERFEIFPKE [S1 peptide], the “affinity of TS1(SW) TCR for S1 peptide, fold lower than that of the TS1 TCR” value with TS1(SW) T cell receptor [2] was “approximately 100 fold”. The “binding affinity of TS1 T cell receptor (in words)” value in the experiment with TS1 T cell receptor is given as “high affinity”. Further, in the experiment on TS1(SW) T cell receptor [1], the “affinity for the TS1(SW) TCR, fold lower than for S1(SW) peptide” value is listed as “about 100 fold”; the “binding affinity of TS1(SW) T cell receptor (in words)” value was “low affinity”; the “fold higher concentrations of S1 peptide needed to reach half-maximal stimulation” value is “around 30 fold”; the EC50 was above 1000 nM.
